# ChEMBL document CHEMBL1129902, “Bioactivatable derivatives of 8-substituted cAMP-analogues” (Bioorg Med Chem Lett, 1997)
# Columns and labels:
# [1] = Lipophilicity relative to cAMP (log Kw=1); type: physicochemical
# [2] = molecular target: cAMP-dependent protein kinase (PKA) (Homo sapiens, UniProt P22694+P17612+P22612); assay: Activation of cAMP dependent protein kinase (PKA); type: functional
SMILES,Log Kw [1],EC50 [2]
CC(=O)OCOP1(=O)OC[C@@H]2O[C@@H](n3c(Br)nc4c(N)ncnc43)[C@H](O)[C@@H]2O1 (some centres not stated),> 2,
CC(=O)OCOP1(=O)OC[C@@H]2O[C@@H](n3c(N4CCCCC4)nc4c(N)ncnc43)[C@H](O)[C@@H]2O1 (some centres not stated),> 3.5,10 µM
CC(=O)OCOP1(=O)OC[C@@H]2O[C@@H](n3c(NCCO)nc4c(N)ncnc43)[C@H](O)[C@@H]2O1 (some centres not stated),> 2,

# Second part, the compound after the results:
Log Kw [1],EC50 [2],SMILES
,20 µM,Nc1ncnc2c1nc(Sc1ccc(Cl)cc1)n2[C@@H]1O[C@@H]2COP(=O)(O)O[C@H]2[C@H]1O
> 4,0.15 µM,CC(=O)OCOP1(=O)OC[C@@H]2O[C@@H](n3c(Sc4ccc(Cl)cc4)nc4c(N)ncnc43)[C@H](O)[C@@H]2O1 (some centres not stated)
